In patent US6268395A, “Phorbol derivatives having antivirus activity” (Lead Chemical Co., Ltd., priority 1999, dated 2001):
Where two headings read alike, the source gives them in different places.

How the values were obtained:
[1] = system: HIV; details: cited from earlier work
[2] = system: P-388 leukemia; details: P-388 leukemia in mice; cited from earlier work
[3] = system: protein kinase C (PKC); type: biochemical, mouse; details: for % Activity of PKC: relative to TPA positive control
Experimental: After addition of 0.55 nM [γ-^32 P] ATP (50×10^3 cpm/nmol), the reaction mixture was mixed and allowed to be kept at 37° C. for 30 minutes. Then the reactions were terminated by the addition of 10 μl of ice-cold stop reagent. Aliquots of 35 μL were transferred to the center of peptide binding discs. After 10 minutes, the discs were washed two times with 75 mM orthophosphoric acid. The activity of ^32 P-labeled samples was counted in 10/mL of a scintillation fluid for 1 minute. […] Blank (in the absence of PKC) and control (in the absence of TPA or tested samples) were also carried out. One unit of PKC was defined as that amount of enzyme, which incorporated 1 nmol of phosphate from ATP into its substrate, peptide, per minute under the assay conditions, described above.

[4] = system: HIV-1; assay: Inhibition of HIV-1-induced cytopathic effect (CPE) in MT-4 cells; type: cell-based, HIV-1 (LAV-1) in human MT-4 cells
Experimental: (§1) In the experiments, MT-4 cells were used. The cells were incubated at 37° C. under 5% CO2 in RPMI-1640 medium (FCS, Flow laboratories, North Ryde, Australia) supplemented with 100 μg/mL of streptomycin (Meiji Seika, Tokyo, Japan), and 100 U/mL of penicillin G (Banyu Pharmaceutical, Tokyo, Japan).
HIV-1 was obtained from culture supernatant of MOLT-4 cells that had been persistently infected with LAV-1.
j) Assay of cytopathic effect(CPE) of HIV-1 in MT-4 cells
(§2) The inhibitory effect of test compounds on HIV-1-induced cytopathogenicity was measured by the method of Harada, Koyanagi & Yamamoto (1985). MT-4 cells were infected for 1 hour with HIV-1 (at TCID50 of 0.001/well) and non-adsorbed virus was removed by washing. Then, the cells were resuspended in RPMI-1640 medium at a concentration of 1.5×10^5 cells/mL. A 200 μL/well of the cell suspension was cultured for 5 days in days in a 96-well culture plate containing various concentrations (12 doses, maximum 1,000 μg/mL and minimum […]) of the test compounds. Control assays were performed in the absence of test compounds with HIV-1-infected and uninfected cultures. On day 5, the IC100 of the test compound required for completely preventing HIV-1-induced CPE(IC) was determined through an optical microscope and the cell growth was examined to give the CC0 that reduces the viability of MT-4 cells.
A variety of phorbol esters and related compounds were tested for their ability to inhibit the replication and infectivity of HIV-1 in MT-4 cells, a human CD4-positive cell line continually infected with HTLV-1, and the results are presented in Table 3.

[5] = Cell growth / viability of MT-4 cells (cytotoxicity); type: cell-based; details: human, day 5, read-out: CC0 (concentration that reduces viability of MT-4 cells; minimum cytotoxic concentration)
Experimental: as §1, §2

CC(=O)O[C@@]12C[C@@H](C)[C@@]3(O)[C@@H](C=C(CO)C[C@]4(O)C(=O)C(C)=C[C@@H]34)[C@@H]1C2(C)C [12-Deoxyphorbol-13-acetate]
anti-HIV activity [1]: having an anti-HIV activity

C/C=C(\C)C(=O)O[C@@H]1[C@@H](C)[C@@]2(O)[C@@H](C=C(CO)C[C@]3(O)C(=O)C(C)=C[C@@H]23)[C@@H]2C(C)(C)[C@]12OC(=O)CCCCCCCCC [12-O-tigloylphorbol-13-decanoate]
antileukemic activity [2]: demonstrated antileukemic activity

CC(=O)OCC12CC3(O)C(=O)C1(C)C1C3C3(O)C(C)C(OC(C)=O)C4(OC(C)=O)C(C3C12)C4(C)C (stereo not drawn) [Compound 24, Lumiphorbol-12,13,20-triacetate]
PKC activation (in words) ([3]; 10 ng/mL (standard concentration)): no activation was observed
% Activity of PKC ([3]; 10 ng/mL): 0%
% Activity of PKC ([3]; 2.7 μg/mL): 93%
PKC activation (in words) ([3]; high concentrations): enhanced activation of PKC
CPE inhibitory effect (in words) ([4]; MT-4 cells, HIV-1): showed no effect
anti-HIV-1 activity ([4]; at concentrations up to 500 μg/mL): did not show anti-HIV-1 activity
MCC at 120 h [5]: 500 µg/mL
